Assay results published in patent US12492182B2, “Hydroxytriazine compounds and pharmaceutical use thereof” (Japan Tobacco Inc., priority 2015, dated 2025).
Where two headings read alike, the source gives them in different places.

Columns and labels:
[1] = system: A549 cell; experiment: Evaluation of PGE2 production inhibitory action using A549 cell (IL-1β stimulated); type: cell-based, human; settings: Homo sapiens
Description: Experimental Example 2: Evaluation of PGE2 Production Inhibitory Action Using A549 Cell
A549 cell (Japan Health Sciences Foundation Research Resources Bank), which is cell line derived from humans lung cancer, was suspended in assay medium (Ham's F-12K (Wako, #080-08565) containing 2% FBS (Hyclone Laboratories, #SH30910.03), 100 units/mL penicillin and 100 μg/mL streptomycin (Invitrogen, #15140-122)), the suspension was added at 2.5×10^4 cells/100 μL/well to 96 well flat-bottom plate (Corning, #353072), and the plate was left standing for 20 hr in a CO2 incubator set at 37° C. The test article was serially diluted with DMSO (Nacalai Tesque, #13407-45), and then 20-fold diluted with the assay medium to prepare a test article solution having a ten-fold concentration of the final concentration. The final DMSO concentration during the reaction was set to 0.5% (v/v). The medium was removed from the plate in which the cell was added, new assay medium was added at 160 μL/well to the plate, and the plate was left standing for 10 min in a CO2 incubator. Then, the test article solution was added at 20 μL/well to the plate, and the plate was left standing for 30 min in a CO2 incubator. Next, recombinant humans IL-1β (R&D Systems, #201-LB) as a stimulant to enhance PGE2 production due to increase of mPGES-1 mRNA expression was added at 20 μL/well (the final concentration was 1 ng/mL) to the plate, and the plate was left standing for 18 hr in a CO2 incubator. The supernatant was collected at 180 μL/well, and the PGE2 concentration was measured using Prostaglandin E2 assay (CISbio Bioassays, #62P2APEC) according to the manual. As the reference standard for analytical curve, PGE2 (Cayman Chemical, #14010) was used. Using EnVision 2104 (Perkin Elmer), the time-resolved fluorescence at 620 nm and 665 nm relative to the excitation light at 337 nm was measured. PGE2 concentration was extrapolated from the PGE2 analytical curve. Average of the PGE2 concentrations of the respectively-treated wells was used as the data.
The PGE2 production inhibitory activity (%) of the test article was calculated according to the following Formula 3. PGE2 production inhibitory activity(%)=(PGE2A−PGE2X)/(PGE2A−PGE2B)×100 [Formula 3] • PGE2A: PGE2 concentration of vehicle-treated well • PGE2B: PGE2 concentration of blank well (no addition of recombinant humans IL-1B) • PGE2X: PGE2 concentration of test article-treated well

[2] = molecular target: T1, human mPGES-1 (Homo sapiens, UniProt O14684); experiment: Evaluation of human mPGES-1 enzyme inhibitory activity (HTRF measurement of PGE2); type: biochemical; settings: IC50 value; microsome fraction of CHO-S cells expressing human mPGES-1, PGH2 substrate, PGE2 by HTRF; read-out: humans mPGES-1 enzyme inhibitory activity
T1 construct: made in house; host or cells: Chinese hamster ovary-derived cells (FreeStyle CHO-S), transient transfection of pcDNA3.1(+)/human mPGES-1; microsome fraction
T1 sequence (O14684 1-152): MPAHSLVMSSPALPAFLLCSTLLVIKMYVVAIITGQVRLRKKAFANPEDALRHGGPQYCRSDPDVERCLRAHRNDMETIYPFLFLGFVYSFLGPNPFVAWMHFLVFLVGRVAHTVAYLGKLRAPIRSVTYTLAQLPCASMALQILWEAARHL
Description: Experimental Example 1: Evaluation of Human mPGES-1 Enzyme Inhibitory Activity
The human mPGES-1 enzyme inhibitory activity of a test article was evaluated according to the report of Xu et al. (XU, D et al. MF63 [2-(6-chloro-1H-phenanthro[9,10-d]imidazol-2-yl)-isophthalonitrile], a selective microsomal prostaglandin E synthase-1 inhibitor relieves pyresis and pain in preclinical models of inflammation. J Pharmacol Exp Ther. September 2008, Vol. 326, No. 3, pages 754-763). The amount of PGE2 produced by human mPGES-1 in the presence of a test article was measured by the HTRF (homogeneous time resolved fluorescence) method, and the human mPGES-1 enzyme inhibitory activity of the test article was determined.
1) Preparation of Human mPGES-1 Expressing Cell Microsome Fraction
A DNA fragment containing human mPGES-1, which is added with a BamHI recognition cleavage sequence just before the translation initiation codon and an EcoRI recognition cleavage sequence just after the translation termination codon, was amplified by the PCR (Polymerase Chain Reaction) method using a human mPGES-1 expression plasmid DNA (pME-18S/iPGES-1) prepared in-house as a template. The purified DNA fragment was digested with BamHI and EcoRI, and ligated to pcDNA3.1(+) (Invitrogen, model number V790-20), similarly_digested with BamHI and EcoRI, by using a DNA Ligation kit ver. 2.1 (Takara Bio, model number 6022). The human mPGES-1 expression plasmid DNA was isolated from Escherichia coli DH5a (TOYOBO, model number DNA-903) transformed with the obtained ligation product. The base sequence of human mPGES-1 cloned to a vector was determined by the Dye Terminator method using BigDye Terminator v3.1 Cycle Sequencing Kit (Applied Biosystems, #4337455). The determined sequence was identical with the sequence of the protein translational region of human mPGES-1 (Accession number NM 004878) registered in the NCBI Reference Database.
Human mPGES-1 expression plasmid DNA was transfected into Chinese hamster ovary-derived cells (FreeStyle CHO-S Cell, Invitrogen, #R^800-07) by using a transgene reagent (FreeStyle MAX Reagent (Invitrogen, #16447-100)), and cultured with shaking (8% CO2, 37° C.) in a medium containing 8 mmol/L L-glutamine (GIBCO FreeStyle CHO Expression Medium, Invitrogen, #12651-022) for 48 hr.
The CHO-S cells were suspended in Homogenate Buffer (100 mmol/L potassium phosphate (pH 7.4), 250 mmol/L Sucrose, 100 mmol/L EDTA, complete EDTA free (Roche, #1873580)). Using an ultrasonic disruptor UD-201 (Tomy Seiko), the suspended cells were disrupted at output:3, duty cycle:50 for 30 seconds. The precipitate was removed by centrifugation (1,000×g, 5 min, 4° C.), and the supernatant was centrifuged (5,000×g, 10 min, 4° C.). The supernatant was further centrifuged (105,000×g, 60 min, 4° C.). The obtained precipitate was suspended in Resuspension Buffer (100 mmol/L potassium phosphate (pH 7.4), 250 mmol/L sucrose, 100 mmol/L EDTA, 10% glycerol) to give a microsome fraction.
The protein concentration of the microsome fraction was measured by the Bradford method (Protein Assay Kit, Bio-Rad). The microsome fraction was rapidly frozen in liquid nitrogen and preserved at −80° C. Human mPGES-1 in the microsome fraction was detected by Western Blot using rabbit anti-mPGES-1 polyclonal antibody (ThermoFisher Scientific, #PA1-10264).
2) Evaluation of Human mPGES-1 Enzyme Inhibitory Activity
A test article solution diluted with 0.1 mol/L potassium phosphate, pH 7.4 (hereinafter to be referred to as KPB) or DMSO (Nacalai Tesque, #13407-45) was added at 5 μL/well to 96 well V-bottom plate (Corning, #3363). The final DMSO concentration during the reaction was set to 2%(v/v). Furthermore, a microsome fraction of CHO-S cells expressing human mPGES-1, which was diluted with reduced GSH (12.5 mmol/L KPB solution, SIGMA, #G6529-25G) such that the protein concentration was 5 μg/mL, was added at 20 μL/well. […]

[3] = A549, 18 h, IC50 value, A549 cell, recombinant IL-1β 1 ng/mL, 18 hr, PGE2 in supernatant, read-out: cell PGE2 production inhibitory activity
[4] = A549, A549 cell, recombinant human IL-1β stimulation, read-out: cell PGE2 production inhibitory activity (IC50 value)

Structure (SMILES) | IC50 [1, 3] [nM] | IC50 [2] [nM] | IC50 [1, 4] [nM]
CC(C)c1cc(-c2nc(O)nc(-c3cc(CNC(=O)C4(C(F)(F)F)CCCC4)ccc3Cl)n2)ccc1Cl [Example 55] | 2.6 | 1.9 | –
CC1(c2cccc(-c3nc(O)nc(-c4cc(CNC(=O)C5(C(F)(F)F)CCCCC5)ccc4Cl)n3)c2)CC1 [Example 64] | – | 1.6 | 5.3
CCCCCCOc1ccc(-c2nc(O)nc(-c3cc(CNC(=O)[C@@](C)(OC)C(F)(F)F)ccc3Cl)n2)cn1 [Example 83] | – | 5 | 2.7
CC(C)(C)c1cc(-c2nc(O)nc(-c3cc(CNC(=O)C(C)(C)C(F)(F)F)ccc3Cl)n2)ccc1Cl [Example 87] | – | 5.2 | 2.9
CCOc1ccc(-c2nc(O)nc(-c3cc(CNC(=O)C4(OC)CCCCC4)ccc3Cl)n2)cn1 [Example 31] | 86 | 1 | –
CCCCOc1ccc(-c2nc(O)nc(-c3cc(CNC(=O)C(C)(C)C(F)(F)F)ccc3Cl)n2)cn1 [Example 14] | 4.7 | 1.2 | –
CCC[C@@H](C)Oc1ccc(-c2nc(O)nc(-c3cc(CNC(=O)C4(C(F)F)CCCC4)ccc3Cl)n2)cn1 [Example 126] | – | 3.1 | 2.5
CO[C@](C)(C(=O)NCc1ccc(Cl)c(-c2nc(O)nc(-c3ccc(Cl)c(C(C)C)c3)n2)c1)C(F)(F)F [Example 56] | 2.6 | 0.7 | –
CCCCCOc1ccc(-c2nc(O)nc(-c3cc(CNC(=O)C(C)(C)C(F)(F)F)ccc3Cl)n2)cn1 [Example 21] | 2.2 | 3.9 | –
COc1ccc(-c2nc(O)nc(-c3cc(CNC(=O)C4(OC)CCCC4)ccc3Cl)n2)cn1 [Example 34] | 1000 | 1.6 | –
CC(C)c1cccc(-c2nc(O)nc(-c3cc(CNC(=O)C4(C(F)(F)F)CCCC4)ccc3Cl)n2)c1 [Example 52, 1-trifluoromethylcyclopentanecarboxylic acid 4-chloro-3-[4-hydroxy-6-(3-isopropylphenyl)-1,3,5-triazin-2-yl]benzylamide] | 6 | 1.1 | –
CCCc1cc(-c2nc(O)nc(-c3cc(CNC(=O)C4(C(F)(F)F)CCCCC4)ccc3Cl)n2)cnc1OCC [Example 72] | – | 5.3 | 5.9
CC(C)c1cccc(-c2nc(O)nc(-c3cc(CNC(=O)C4(C(F)F)CCCC4)ccc3Cl)n2)c1 [Example 96] | – | 0.8 | 61
COc1ccc(-c2nc(O)nc(-c3cc(CNC(=O)C4(OC)CCCCC4)ccc3Cl)n2)cn1 [Example 28] | 100 | 1.8 | –
CC(C)c1cccc(-c2nc(O)nc(-c3cc(CNC(=O)C4(CF)CCCCCC4)ccc3Cl)n2)c1 [Example 111] | – | 1.5 | 54
CCCOc1cc(C)cc(-c2nc(O)nc(-c3cc(CNC(=O)C(C)(C)C(F)(F)F)ccc3Cl)n2)c1 [Example 10] | 49 | 1.7 | –
CC1(c2cccc(-c3nc(O)nc(-c4cc(CNC(=O)C5(C(F)(F)F)CCCC5)ccc4Cl)n3)c2)CC1 [Example 63] | – | 1.7 | 14
CC(C)c1cc(-c2nc(O)nc(-c3cc(CNC(=O)C(C)(C)C(F)(F)F)ccc3Cl)n2)cc(C(C)C)c1 [Example 18] | 260 | 5.3 | –
COc1ccc(-c2nc(O)nc(-c3cc(CNC(=O)C(C)(C)C(F)(F)F)ccc3Cl)n2)cc1C(C)(C)C [Example 36] | 10 | 5.8 | –

More lines, in order of falling IC50 [2], values ahead:

IC50 [1, 3] [nM] | IC50 [2] [nM] | IC50 [1, 4] [nM] | Structure (SMILES)
– | 3.3 | 7.9 | CC(C)(C)c1cccc(-c2nc(O)nc(-c3cc(CNC(=O)C4(C(F)F)CCCCCC4)ccc3Cl)n2)c1 [Example 121]
– | 2.8 | 3.9 | CC(C)(C)c1cc(-c2nc(O)nc(-c3cc(CNC(=O)C(C)(C)C(F)(F)F)ccc3Cl)n2)ccc1F [Example 67]
– | 2.6 | 2.5 | CCC[C@@H](C)Oc1ccc(-c2nc(O)nc(-c3cc(CNC(=O)C(CC)(CC)CF)ccc3Cl)n2)cn1 [Example 124]
– | 2.4 | 6.5 | CCC[C@H](C)Oc1ccc(-c2nc(O)nc(-c3cc(CNC(=O)C(CC)(CC)OC)ccc3Cl)n2)cn1 [Example 103]
– | 1.8 | 2.1 | CCC[C@H](C)Oc1ccc(-c2nc(O)nc(-c3cc(CNC(=O)C(C)(C)C(F)(F)F)ccc3Cl)n2)cn1 [Example 86]
– | 1.2 | 10 | CCC(OC)(C(=O)NCc1ccc(Cl)c(-c2nc(O)nc(-c3cccc(C4(C)CC4)c3)n2)c1)C(F)(F)F (centres unmarked) [Example 136]
– | 1 | 50 | COc1ncc(-c2nc(O)nc(-c3cc(CNC(=O)C4(C(F)(F)F)CCCCC4)ccc3Cl)n2)cc1C(C)C [Example 62]
170 | 0.5 | – | CC(C)(C(=O)NCc1ccc(Cl)c(-c2nc(O)nc(-c3ccc(OC4CC4)nc3)n2)c1)C(F)(F)F [Example 50]
53 | 0.3 | – | CC(C)(C(=O)NCc1ccc(Cl)c(-c2nc(O)nc(-c3ccc(OC4CCC4)nc3)n2)c1)C(F)(F)F [Example 59]
